According to patent US5646172A, “Method of inducing antiandrogenic activity using imidazolidines substituted with a heterocycle” (Roussel Uclaf, priority 1994, dated 1997):

Biological target: T1, androgen receptor (Rattus norvegicus, UniProt P15207)
T1 construct: from tissue; host or cells: prostate cytosol (209,000 g supernatant) of male Sprague Dawley rats castrated 24 hours previously
T1 sequence (P15207 1-902): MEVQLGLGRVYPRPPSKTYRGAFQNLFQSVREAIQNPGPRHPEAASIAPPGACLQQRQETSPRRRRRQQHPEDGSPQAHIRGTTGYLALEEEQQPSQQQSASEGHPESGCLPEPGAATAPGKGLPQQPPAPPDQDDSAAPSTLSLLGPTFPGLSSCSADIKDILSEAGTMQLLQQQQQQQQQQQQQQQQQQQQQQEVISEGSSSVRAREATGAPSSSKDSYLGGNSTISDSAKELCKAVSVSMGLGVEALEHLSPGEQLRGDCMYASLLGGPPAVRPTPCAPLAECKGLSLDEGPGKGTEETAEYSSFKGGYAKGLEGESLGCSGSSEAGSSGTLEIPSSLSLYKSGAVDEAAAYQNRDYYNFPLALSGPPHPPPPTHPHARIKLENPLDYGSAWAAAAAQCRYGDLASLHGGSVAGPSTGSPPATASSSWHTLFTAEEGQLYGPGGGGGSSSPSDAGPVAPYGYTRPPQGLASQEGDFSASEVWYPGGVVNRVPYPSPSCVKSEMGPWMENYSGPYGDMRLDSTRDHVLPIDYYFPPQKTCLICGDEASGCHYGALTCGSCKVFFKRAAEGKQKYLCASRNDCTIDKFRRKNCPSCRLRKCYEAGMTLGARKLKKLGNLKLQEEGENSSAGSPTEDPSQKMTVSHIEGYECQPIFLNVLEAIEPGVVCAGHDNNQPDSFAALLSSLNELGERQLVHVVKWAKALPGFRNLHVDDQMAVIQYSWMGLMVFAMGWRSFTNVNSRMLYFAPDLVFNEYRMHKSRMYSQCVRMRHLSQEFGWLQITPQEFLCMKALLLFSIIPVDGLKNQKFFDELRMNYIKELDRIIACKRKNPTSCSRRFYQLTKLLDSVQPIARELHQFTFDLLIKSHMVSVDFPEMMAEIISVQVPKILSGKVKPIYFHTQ
Assay: Affinity of the products for the androgen receptor (relative bond affinity, displacement of tritiated testosterone in prostate cytosol)
Format: binding
Method: Study of the affinity of the products for the androgen receptor
Calculation of the relative bond affinity (RBA).
The following 2 curves were drawn: the percentage of bound tritiated hormone B/T as a function of the logarithm of the concentration of the unlabelled reference hormone and B/T as a function of the logarithm of the concentration of the unlabelled tested product. The straight line of the equation I50 =(B/Tmax+B/Tmin)/2 was determined.
B/T max=% of the bound tritiated hormone for an incubation of this tritiated hormone at the concentration (T).
B/T min=% of the bound tritiated hormone for an incubation of this tritiated hormone at the concentration (T) in the presence of a large excess of unlabelled hormone (2500.10^-9 M).
The intersections of the straight line I50 and the curves allowed the evaluation of the concentrations of the unlabelled reference hormone (CH) and of the tested unlabelled product (CX) which inhibit by 50% the binding of the tritiated hormone on the receptor.

## N#Cc1ccc(N2C(=O)N(CCCCO)C3(CCOCC3)C2=O)cc1C(F)(F)F [Example 3, 4-(2,4-dioxo-1-(4-hydroxybutyl)-8-oxa-1,3-diazaspiro[4.5]decan-3-yl)-2-(trifluoromethyl)-benzonitrile]
  RBA: Incubation 24 hours: 6

## N#CCN1C(=O)N(c2ccc(C#N)c(C(F)(F)F)c2)C(=O)C12CCOCC2 [Example 10, 3-(4-cyano-3-(trifluoromethyl)-phenyl)-2,4-dioxo-8-oxa-1,3-diazaspiro[4.5]decan-1-acetonitrile]
  RBA: Incubation 24 hours: 5
